Experimental findings from US20130274216A1 (priority 2012, published 2013) are described below.

The test system of assay [1] is Fusarium conidia infected murine cornea. Put plainly: In vivo murine fungal keratitis model, neutrophil infiltration of the infected cornea. As to conditions: for neutrophil infiltration (neutrophils per 5 μm corneal section): 24 hours after infection, infected PBS or vehicle groups >200 neutrophils/section. More on the design: species or system C57BL/6 mice.
Another assay deals with Aspergillus flavus. The class given is in vivo, murine.

Each structure is given as a SMILES string.

In the case of `COc1ccc(Nc2nc(-c3cccs3)nc3cn[nH]c23)cc1OC` [Compound 1], the “neutrophil infiltration (neutrophils per 5 μm corneal section)” value in assay [1] (0.1% w/v test group) and in assay [1] (1% w/v test group) was less than 100 neutrophils/section each time. Besides, in assay [1] (test groups vs infected PBS/vehicle groups, 24 hours, FIG. 2), the “neutrophil infiltration, effect in words” value is “dose-dependent reduction”.

On to `C[C@@H]1C/C=C/C=C/C=C/C=C/[C@H](O[C@@H]2O[C@H](C)[C@@H](O)[C@H](N)[C@@H]2O)C[C@@H]2O[C@](O)(C[C@@H](O)C[C@H]3O[C@@H]3/C=C/C(=O)O1)C[C@H](O)[C@H]2C(=O)O` [natamycin], for which the “reduction in CFUs/eye” value in the assay on Aspergillus flavus (72 hours after infection with Aspergillus, dosed qid for 48 hours, control approximately 15000 CFUs/eye, FIG. 3B) was roughly 50%. Moreover, the “Aspergillus infection evaluated by RFP expression” value in the assay with Aspergillus flavus (fluorescence micrographs of murine corneas 72 hours after infection, FIG. 3A) was “suppressed”.
